Experimental data taken from ChEMBL document CHEMBL1800007, “Synthesis, activity, and structural analysis of novel α-hydroxytropolone inhibitors of human immunodeficiency virus reverse transcriptase-associated ribonuclease H” (J Med Chem, 2011).
The source made the active and inactive calls. The rule behind the calls is not given here.

Columns and labels:
[1] = biological target: Human immunodeficiency virus type 1 reverse transcriptase (Human immunodeficiency virus 1, UniProt Q72547); assay: Inhibition of RNase H activity of his6-tagged HIV1 HXB2 reverse transcriptase p66/p51 expressed in Escherichia coli assessed as substrate cleavage at polypurine tract by PAGE-based fluorescent imaging method
[2] = system: Human immunodeficiency virus 1; assay: Antiviral activity against HIV1 RF infected in human CEM-SS cells assessed as protection against virus-induced cytopathic effect; assay type: functional, organism-based
[3] = system: Human immunodeficiency virus 1; conditions: at 20 µM
Description: Inhibition of DNA dependent DNA polymerase activity of his6-tagged HIV1 HXB2 reverse transcriptase p66 D549A/p51 mutant expressed in Escherichia coli at 20 uM using fluorescently tagged duplex DNA substrate by PAGE and fluorescent imaging method

[4] = (§1) Cytotoxicity against human CEM-SS cells; assay type: cell-based; conditions: CEM-SS cells
[5] = system: Human immunodeficiency virus 1; conditions: at 20 µM; remark: listed apart in the source
Description: Inhibition of DNA dependent DNA polymerase activity of his6-tagged HIV1 HXB2 reverse transcriptase p66 E478Q/p51 mutant expressed in Escherichia coli at 20 uM using fluorescently tagged duplex DNA substrate by PAGE and fluorescent imaging method

[6] = biological target: Human immunodeficiency virus type 1 reverse transcriptase (Human immunodeficiency virus 1) (UniProt Q72547); conditions: HXB2, at 20 µM
Description: Inhibition of DNA dependent DNA polymerase activity of his6-tagged HIV1 HXB2 reverse transcriptase p66/p51 expressed in Escherichia coli at 20 uM using fluorescently tagged duplex DNA substrate by PAGE and fluorescent imaging method

[7] = system: CEM-SS; assay: as §1; assay type: cell-based; conditions: cem-ss
[8] = Therapeutic index, CC50 for human CEM-SS cells to EC50 for HIV1 RF; assay type: cell-based
[9] = Human immunodeficiency virus 1, RF, CEM-SS, read-out: EC50

| Compound | IC50 [1] [µM] | EC50 ([2]; cem-ss) | inhibition [3] | CC50 [4] [µM] | inhibition [5] | inhibition [6] | EC50 [2, 9] [µM] | CC50 [7] [µM] | inhibition (INH) [2] [%] | selectivity ratio [8] |
| --- | --- | --- | --- | --- | --- | --- | --- | --- | --- | --- |
| CC(C)c1ccc(O)c(=O)c(O)c1 [BETA-THUJAPLICINOL] | 0.21 | Not Active | inactive | 2.3 | inactive | inactive | – | – | – | – |
| CC(=O)Oc1cc(C)c2c(c(OC(C)=O)c1=O)CC[C@H](C(C)(O)CO)C2 (mixture of isomers) | 1.9 | Not Active | inactive | > 50 | inactive | inactive | – | – | – | – |
| Cc1cc(O)c(=O)c(O)c2c1C[C@@H](C(C)(O)CS(=O)(=O)c1ccccc1)CC2 (mixture of isomers) | 0.51 | – | inactive | – | inactive | – | 21.2 | > 50 | – | – |
| C=C(C)[C@H]1CCc2c(c(C)cc(O)c(=O)c2O)C1 | 0.6 | Not Active | inactive | – | inactive | inactive | – | – | – | – |
| CCSCC(C)(O)[C@H]1CCc2c(c(C)cc(O)c(=O)c2O)C1 (mixture of isomers) | 0.38 | – | inactive | – | inactive | – | – | 25.8 | <50 | – |
| Cc1cc(O)c(=O)c(O)c2c1C[C@@H](C(C)(O)CNc1ccccc1)CC2 (mixture of isomers) | 1.2 | – | Active | – | Active | – | 7.4 | 31.7 | – | – |
| Cc1cc(O)c(=O)c(O)c2c1C[C@@H](C(C)(O)CNCc1ccccc1F)CC2 (mixture of isomers) | 1.2 | Not Active | inactive | – | inactive | – | – | > 50 | – | – |
| Cc1cc(O)c(=O)c(O)c2c1C[C@@H](C(C)(O)CSc1ccccc1)CC2 (mixture of isomers) | 0.93 | – | inactive | – | inactive | – | 11.5 | 17.8 | – | – |
| Cc1cc(O)c(=O)c(O)c2c1C[C@@H](C(C)(O)CSCc1ccccc1)CC2 (mixture of isomers) | 1.3 | – | inactive | – | inactive | – | 4.2 | 17.4 | – | – |
| Cc1cc(O)c(=O)c(O)c2c1C[C@@H](C(C)O)CC2 (mixture of isomers) | 0.68 | – | inactive | – | inactive | – | 6.9 | 26.1 | – | – |
| Cc1cc(O)c(=O)c(O)c2c1C[C@@H](C(C)(O)CN1CCCCC1)CC2 (mixture of isomers) | 0.82 | – | inactive | – | inactive | – | 10.2 | > 50 | – | 4.9 |
| CCN(CC)CC(C)(O)[C@H]1CCc2c(c(C)cc(O)c(=O)c2O)C1 (mixture of isomers) | 0.5 | – | inactive | – | inactive | inactive | – | > 50 | <50 | – |
| Cc1cc(O)c(=O)c(O)c2c1C[C@@H](C(C)(O)C[S+]([O-])c1ccccc1)CC2 (mixture of isomers) | 1.3 | – | Active | – | Active | – | 14.5 | > 50 | – | – |
| Cc1cc(O)c(=O)c(O)c2c1C[C@@H](C(C)NCc1ccccc1)CC2 (mixture of isomers) | 0.96 | – | inactive | – | inactive | – | 10.6 | 16.7 | – | – |
| Cc1cc(O)c(=O)c(O)c2c1C[C@@H](C(C)(O)Cn1ccnc1)CC2 (mixture of isomers) | – | – | inactive | – | inactive | inactive | 42.1 | > 50 | – | – |
| CCS(=O)(=O)CC(C)(O)[C@H]1CCc2c(c(C)cc(O)c(=O)c2O)C1 (mixture of isomers) | 0.24 | – | inactive | – | inactive | – | – | 10.4 | <50 | – |
